Marks after values point to notes of the source that are not given here. One block for each molecule: values may come before it.
Tests used:
[1] = DPPH radical-scavenging activity
Procedure: The essential oil of Mentha piperita was performed using a 1,1-diphenyl-2-picryl hydrazyl (DPPH) technique, as reported in Brand-Williams et al. with some changes. Briefly, a 2.5 mL aliquot of DPPH solution was mixed with 1.25 mL of the essential oil at a concentration of 1 mg/mL, and then the obtained solution was incubated at 25 °C for 30 min. The absorbance was measured at 517 nm.

[2] = Trolox equivalent antioxidant capacity (ABTS) assay
Procedure: The assay was carried out using the ABTS^+ method as described by Re et al. with some modifications. Briefly, the ABTS radical cation was generated by mixing 10 mL of 2 mM ABTS with 100 µL of potassium persulfate (2.45 mM). After the reaction mixture is kept in the dark at room temperature for 16 h, methanol is used to dilute the ABTS solution to obtain an absorbance of 0.700 at 734 nm. Two hundred µL of the essential (1 mg/mL) was mixed with 2 mL of diluted ABTS solution. The mixture was allowed to react for 1 min, and the absorbance was measured at 734 nm. Trolox is used as a reference standard. The results were expressed as an IC50 value (µg/mL).

H2O2-scavenging activity = experiment: H2O2-scavenging activity
Procedure: The H2O2 radical scavenging activity of extracts was determined according to the method described by Ruch et al.. Briefly, 40 mM of H2O2 solution was prepared in phosphate buffer (pH 7.4). A total of 1 mL of M. piperita HE at a concentration of 1 mg/mL was added to 0.6 mL of H2O2 solution. The mixture was incubated at 25 °C for 10 min, and the absorbance of H2O2 was determined at 230 nm against a blank solution containing phosphate buffer without H2O2. The positive control used is Ascorbic acid. The H2O2 trapping capacity was expressed as an IC50 value (µg/mL).

E. coli ATCC 25922 = experiment: MIC and MBC determination; assay type: cell-based, Escherichia coli; parameters: MBC: unit not given beside the values
Procedure: (§1) The antibacterial activity of M. piperita essential oils (MPEO) from Ouezzane and Azrou regions (Morocco) was evaluated against the following six bacterial strains: three gram-positive bacteria (Staphylococcus aureus ATCC 29213, Listeria monocytogenes ATCC 13932, Bacillus subtilis ATCC 6633), and three gram-negative bacteria (Escherichia coli ATCC 25922, Salmonella typhimurium ATCC 700408, and Pseudomonas aeruginosa ATCC 27853).
(§2) An inoculum of the frozen stock (−20 °C) was utilized to inoculate Mueller–Hinton Agar (Biokar, Beauvais, France), where it was incubated for 24 h at 37 °C to revive the bacteria. Then, an inoculum was removed from a bacterial colony and diluted to 0.5 McFarland in sterile salt water (0.9% NaCl) before being transferred to a sterile tube where the weighty particles were left to settle for 5 min. The top homogeneous solutions were transferred to a new, sterile tube and their concentration was adjusted to the 0.5 McFarland turbidity standard to obtain an inoculum of about […], which was used in the antibacterial testing
(§3) The minimum inhibitory concentration (MIC) is the lowest essential oil concentration that could prevent the growth of bacteria. […]
(§4) The MBC was determined to be the minimum concentration at which no growth occurred in the medium. […]

[3] = system: S. typhimurium ATCC 700408; experiment: MIC and MBC determination; assay type: cell-based, Salmonella typhimurium
Procedure: as §1, §2
(§5) The minimum inhibitory concentration (MIC) is the lowest essential oil concentration that could prevent the growth of bacteria. The determination of MIC values against bacteria was conducted according to the previously reported procedure with a minor change, using Mueller–Hinton broth (Biokar, Beauvais, France) and bacteria. Twenty-four h of incubation was done at 37 °C. The antibiotic chloramphenicol served as a positive control. In sterile microtubes, two-fold serial dilutions of EO concentrations ranging from 4% to 0.0625 % (v/v) were made in Mueller–Hinton broth containing 5% of DMSO. […] Then, 5 µL of the previously produced bacterial suspension was added to each tube. Each suspension was homogenized and incubated for 24 h at 37 °C. As a first negative control, microtubes containing liquid medium and EO were used. […]
as §4

P. aeruginosa ATCC 27853 = experiment: MIC and MBC determination; assay type: cell-based, Pseudomonas aeruginosa; parameters: unit not given beside the values; details: chloramphenicol, unit not given
Procedure: as §1, §2, §3, §4

S. aureus ATCC 29213 = experiment: MIC and MBC determination; assay type: cell-based, Staphylococcus aureus; parameters: MBC: unit not given beside the values
Procedure: as §1, §2, §3, §4

[4] = system: L. monocytogenes ATCC 13932; experiment: MIC and MBC determination; assay type: cell-based, Listeria monocytogenes; parameters: MIC / MBC: unit not given beside the values
Procedure: as §1, §2, §5, §4

B. subtilis ATCC 6633 = experiment: MIC and MBC determination; assay type: cell-based, Bacillus subtilis; parameters: MIC / MBC: unit not given beside the values
Procedure: as §1, §2, §5, §4

[5] = system: carrageenan-induced rat paw edema; experiment: Carrageenan-induced paw edema; assay type: in vivo, Wistar rats; details: EO 100 mg/kg oral, indomethacin 10 mg/kg
Procedure: The studies were carried out on adult rats of the Wistar strain, obtained from the central animal facility of the Faculty of Medicine and Pharmacy of Rabat. These rats weighed between 200 and 250 g. The temperature was maintained at 20 °C with a lighting cycle of 12 h of light and 12 h of darkness. The study was approved by the Ethics Committee from Mohammed V University, (Protocol code # UA-2021-09; date of approval 27 May 2021).
The anti-inflammatory effects were studied using the carrageenan-induced paw edema method previously described by Musa G. Rege et al.. Briefly, Wistar rats (160 to 200 g) were randomly divided into […] (n = 6). The first two groups were orally administered with 100 mg/kg of M. pepirita EO. The third group was a negative control which received distilled water, while the last group was considered a positive control and received indomethacin (10 mg/kg) as the reference anti-inflammatory drug. After 60 min, all rats were injected subcutaneously with carrageenan solution (0.05 mL of 1% carrageenan suspended in 0.9% NaCl) into the subplantar region of the left hind paw. […] The anti-inflammatory effect is calculated using the following equation. In each group, the anti-inflammatory effect is measured by the percentage of edema inhibition (% INH) in paw volume, as follows: %INH = (mean [VL − VR] Control − mean [VL − VR] Treated)/[VL − VR] Control × 100 • With: VL: volume of the left paw. • VR: volume of the right paw.

[6] = chloramphenicol, unit not given

DPPH IC50 [1]: 09.03 ± 0.02 ^a µg/mL
ABTS Test IC50 [2]: 74.81 ± 0.01 ^a µg/mL
H2O2 IC50 (H2O2-scavenging activity): 3.23 ± 0.08 ^a µg/mL
SMILES: O=C1O[C@H]([C@@H](O)CO)C(O)=C1O [Ascorbic acid]

MBC/MIC (E. coli ATCC 25922): 1.0
MBC/MIC [3]: 1.0
MIC [3, 6]: 64.0
MIC (P. aeruginosa ATCC 27853): >64.0
MBC/MIC (S. aureus ATCC 29213): 1.0
MBC/MIC [4]: 1.0
MIC [4, 6]: 2.0
MBC/MIC (B. subtilis ATCC 6633): 1.0
MIC (B. subtilis ATCC 6633; [6]): 32.0
SMILES: O=C(N[C@H](CO)[C@H](O)c1ccc([N+](=O)[O-])cc1)C(Cl)Cl [Chloramphenicol]
MBC (E. coli ATCC 25922; [6]): 8.0
MBC [3, 6]: 64.0
MBC (P. aeruginosa ATCC 27853): >64.0
MBC (S. aureus ATCC 29213; [6]): 4.0
MBC [4, 6]: 2.0
MBC (B. subtilis ATCC 6633; [6]): 32.0

SMILES: COc1ccc2c(c1)c(CC(=O)O)c(C)n2C(=O)c1ccc(Cl)cc1 [Indomethacin]
Mean Edema Volume (Left-Right Paw) ([5]; 1 h 30 min): 0.146 ± 0.04 mL
Percentage Inhibition of Edema ([5]; 1 h 30 min): 69.77%
Mean Edema Volume (Left-Right Paw) ([5]; 3 h): 0.178 ± 0.01 mL
Percentage Inhibition of Edema ([5]; 3 h): 70.23%
Mean Edema Volume (Left-Right Paw) ([5]; 6 h): 0.191 ± 0.01 mL
Percentage Inhibition of Edema ([5]; 6 h): 59.61%

Reference: paper PMC9658668, “Phytochemical Variability, In Vitro and In Vivo Biological Investigations, and In Silico Antibacterial Mechanisms of Mentha piperita Essential Oils Collected from Two Different Regions in Morocco” (Foods, 2022)
